In patent US20190315814A1, “LANTIBIOTIC VARIANTS AND USES THEREOF” (priority 2016, published 2019):
In brackets after ≈: the same amount, converted by molar mass. Where two headings read alike, the source gives them in different places. Marks after values point to notes of the source that are not given here.

Experiments:
[1] = test system: Streptococcus pneumoniae (ATCC 700675); experiment: MIC assay against Streptococcus pneumoniae; type: cell-based; details: ATCC700675, read-out: MIC S. pneumonia
[2] = test system: Eggerthella lenta (ATCC 27337)
[3] = test system: VRE Enterococcus faecalis
[4] = test system: Lactobacillus acidophilus (CCUG 4356)
[5] = simulated gi fluid
[6] = in vitro; details: simulated gi fluid
Procedure: Assay incubation conditions included […] simulated gastric fluid (SGF, USP 39 Test Solution; 2 g/L NaCl, 7 mL/L glacial HCl, pH 1.4) containing 1.75 mg/mL Pepsin (3200-4500 U/mg) mixed with 7.5 μL of 10 mg/mL variant (or positive control, NH2-Met-Arg-Phe-Ala-OH, MRFA, CAS#67368-29-0) for a final concentration of 300 μg/ml variant in a microfuge tube. Samples were incubated at 37° C. and analyzed using HPLC or LC-MS for loss of substrate. The percent remaining, elimination rate constant (Ke), and in vitro protein half-lives were calculated. A control of SGF without enzyme was also run and analyzed in the same manner for each variant.

[7] = test system: Heliobacter pylori
[8] = test system: VRE Enterococcus faecium
[9] = test system: Peptostreptococcus anaerobius (ATCC 27337)
[10] = test system: Clostridium difficile UNT103-1; experiment: Non-cannulated Syrian hamster C. difficile infection model, oral gavage; type: in vivo, Golden Syrian hamsters; details: for Efficacy compared with Vancomycin-treated animals: end of the study at Day 22, in words; for Efficacy compared with Vancomycin-treated animals / Toxin A level at Day-22 / Mean LOG10 CFU/mL of feces homogenates (cecal spore counts) at Day-22 / Toxin B level at Day-22: oral gavage; for Percent Survival at Day-22: oral gavage TID Days 2-6, vancomycin 20 mg/kg once a day; for Toxin A level at Day-22: first value of A/B cell; for Toxin A level at Day-22 / Toxin B level at Day-22: limit of detection 0.8; for Mean LOG10 CFU/mL of feces homogenates (cecal spore counts) at Day-22: limit of detection 2.40; for Toxin B level at Day-22: second value of A/B cell
Procedure: (§1) Following the recovery phase, male Golden Syrian hamsters were inoculated with Clostridium difficile UNT103-1 (VA11, non epidemic (cdtB-, REA group J) Curtis Donskey, Cleveland VA Hospital, Cleveland, Ohio). On Day 1, at 24 hrs after infection, all animals received a single subcutaneous injection of clindamycin (10 mg/kg). Test article formulations were administered three times per day (TID), starting on Day 2 at 18 hours after Clindamycin injection, for 5 consecutive days (Days 2 through 6), and followed until Day 22 to assess recurrence. Vancomycin (positive control) was administered once a day at 20 mg/kg on Days 2 through 6. Cecal spore counts and Toxins A and B were determined as described above

[11] = test system: Clostridium difficile UNT103-1; experiment: Second non-cannulated Syrian hamster C. difficile infection model, oral gavage dose range-finding; type: in vivo, Golden Syrian hamsters
Procedure: as §1, with “formulated at 3 to 5 different doses” for “formulations”, “above.” for “above”

[12] = test system: Clostridium scindens (ATCC 35704)
[13] = test system: VRE Enterococcus faecalis; experiment: organism not typed
[14] = test system: VRE Enterococcus faecium; experiment: organism not typed; details: read-out: MIC VRE ATCC 700221, strain ATCC 700221
[15] = test system: Eggerthella lenta (ATCC 27337); experiment: microbe, parasite or virus in culture; details: ATCC27337, read-out: MIC E. lenta
[16] = test system: Pseudomonas aerigunosa; experiment: MIC against Gram negative P. aeruginosa; type: cell-based, Pseudomonas aeruginosa
Procedure: A minimum inhibitory concentration (MIC) assessment against Pseudomonas aerigunosa (a Gram negative bacterium) was performed for single site variants in the broth dilution assay as described by the CLSI (CLSI document M07-A8). Samples and Ofloxacin control were dissolved and serially diluted in 100% DMSO and 4 μL was added per well to 96-well plate with 196 μL of Cation Adjusted Mueller Hinton II Broth seeded with P. aeruginosa. […] The assay plates were loosely wrapped in a plastic bag and incubated 20-24 hours at 36° C. (aerobic conditions) and then visually examined and scored positive (+) for inhibition of growth or turbidity or negative (−) for no effect upon growth or turbidity.

[17] = test system: Staphylococcus aureus; experiment: MIC assay against Staphylococcus aureus; type: cell-based
[18] = FaSSIF + 1% pancreatin + 3 μg/ml trypsin + 3 μg/ml chymotrypsin half-life
[19] = 6 mg/Kg oral gavage TID Days 2-6
[20] = 20 mg/Kg oral gavage TID Days 2-6
[21] = 60 mg/Kg oral gavage TID Days 2-6
[22] = 35 mg/Kg oral gavage TID, limit of detection 0.8

Molecule | MIC E. lenta [2] [µg/mL] | MIC VRE ATCC 51575 ([3]; VRE) [µg/mL] | MIC VRE CCUG 47775 ([3]; VRE) [µg/mL] | MIC L. acidophilus [4] [µg/mL] | half-life [5, 18] [h] | half-life ([5]; FaSSIF only half-life) [h] | half-life [6] [h] | MIC to H. Pylori without EDTA [7] [µg/mL] | MIC to H. Pylori with 0.05M EDTA [7] [µg/mL] | MIC VRE ATCC 700221 [8] [µg/mL] | MIC P. anaerobius [9] [µg/mL] | Efficacy compared with Vancomycin-treated animals [10] | Percent Survival at Day-22 [10] [%] | Toxin A level at Day-22 [10] | Mean LOG10 CFU/mL of feces homogenates (cecal spore counts) at Day-22 [10] | Toxin B level at Day-22 [10] | Mean LOG10 CFU/mL of feces homogenates (cecal spore counts) at Day-22 ([11]; 6 mg/Kg oral gavage TID) [LOG10 CFU/mL] | Toxin A level at Day-22 ([11]; 6 mg/Kg oral gavage TID) [ng/mL] | Toxin B level at Day-22 ([11]; 6 mg/Kg oral gavage TID) [ng/mL] | Percent Survival at Day-22 [11, 19] [%] | other results
CC1(C)S[C@@H]2[C@H](NC(=O)[C@H](N)c3ccccc3)C(=O)N2[C@H]1C(=O)O [Ampicillin] |  |  |  |  |  |  |  |  |  |  |  |  |  |  |  |  |  |  |  |  | MIC [1]: 1 µg/mL (≈ 2.86 µM)
C=C1NC(=O)[C@H](Cc2c[nH]c3ccccc23)NC(=O)[C@H](NC(=O)[C@H](CCCCN)NC(=O)[C@@H](N)[C@@H](C)CC)CSC[C@@H](C(=O)N[C@H]2C(=O)N3CCC[C@H]3C(=O)NCC(=O)N[C@H](C(=O)N[C@@H](C)C(=O)N[C@@H](CC(N)=O)C(=O)NC(=CC)C(=O)NCC(=O)N[C@@H]3CSC[C@@H]4NC(=O)[C@H](Cc5ccccc5)NC(=O)[C@@H](CS/C=C\NC4=O)NC(=O)[C@H](CC(N)=O)NC(=O)[C@H](Cc4ccccc4)NC3=O)CS[C@H]2C)NC(=O)[C@H](CC(C)C)NC1=O [F1I R13N Y20F] | 0.125 (≈ 0.0575 µM) | 8 (≈ 3.68 µM) | 16 (≈ 7.36 µM) | 0.5 (≈ 0.23 µM) | > 12 | > 12 | > 24 | 8 (≈ 3.68 µM) | 4 | 8 (≈ 3.68 µM) | 0.125 (≈ 0.0575 µM) | equal or superior efficacy | 83 | 5.1 ng/mL | 2.65 LOG10 CFU/mL | 6 ng/mL | 5.47 | 215.5 | 242.2 | 0 | Mean LOG10 CFU/mL of feces homogenates (cecal spore counts) at Day-22 ([11]; 20 mg/Kg oral gavage TID): 5.37 LOG10 CFU/mL; Toxin A level at Day-22 ([11]; 20 mg/Kg oral gavage TID): 165.5 ng/mL; Toxin B level at Day-22 ([11]; 20 mg/Kg oral gavage TID): 272.3 ng/mL; Percent Survival at Day-22 [11, 20]: 33%; Mean LOG10 CFU/mL of feces homogenates (cecal spore counts) at Day-22 ([11]; 60 mg/Kg oral gavage TID): 3.18 LOG10 CFU/mL; Toxin A level at Day-22 ([11]; 60 mg/Kg oral gavage TID): 47.6 ng/mL; Toxin B level at Day-22 ([11]; 60 mg/Kg oral gavage TID): 108.7 ng/mL; Percent Survival at Day-22 [11, 21]: 83%; MIC C. scindens [12]: 2 µg/mL (≈ 0.921 µM)
C=C1NC(=O)[C@H](Cc2c[nH]c3ccccc23)NC(=O)[C@H](NC(=O)[C@H](CCCCN)NC(=O)[C@@H](N)C(C)C)CSC[C@@H](C(=O)N[C@H]2C(=O)N3CCC[C@H]3C(=O)NCC(=O)N[C@H](C(=O)N[C@@H](C)C(=O)N[C@@H](CC(N)=O)C(=O)N/C(=C\C)C(=O)NCC(=O)N[C@@H]3CSC[C@@H]4NC(=O)[C@H](Cc5ccc(O)cc5)NC(=O)[C@@H](CS/C=C\NC4=O)NC(=O)[C@H](CC(N)=O)NC(=O)[C@H](Cc4ccccc4)NC3=O)CS[C@H]2C)NC(=O)[C@H](CC(C)C)NC1=O [F1V R13N] | 0.5 (≈ 0.23 µM) | 32 (≈ 14.7 µM) | 32 (≈ 14.7 µM) | 0.5 (≈ 0.23 µM) | > 12 | > 12 | > 24 | 8 (≈ 3.68 µM) | 8 | 16 (≈ 7.36 µM) | 0.25 (≈ 0.115 µM) | equal or superior efficacy | 100 | 0.8/0.8** ng/mL | 2.4* LOG10 CFU/mL | 0.8/0.8** ng/mL | 4.27 | 266.2 | 238.1 | 50 | Mean LOG10 CFU/mL of feces homogenates (cecal spore counts) at Day-22 ([11]; 2 mg/Kg oral gavage TID): 6.13 LOG10 CFU/mL; Toxin A level at Day-22 ([11]; 2 mg/Kg oral gavage TID): 578.5 ng/mL; Toxin B level at Day-22 ([11]; 2 mg/Kg oral gavage TID): 462.7 ng/mL; Percent Survival at Day-22 ([11]; 2 mg/Kg oral gavage TID Days 2-6): 0%; Mean LOG10 CFU/mL of feces homogenates (cecal spore counts) at Day-22 ([11]; 20 mg/Kg oral gavage TID): 3.88 LOG10 CFU/mL; Toxin A level at Day-22 ([11]; 20 mg/Kg oral gavage TID): 74.2 ng/mL; Toxin B level at Day-22 ([11]; 20 mg/Kg oral gavage TID): 57.8 ng/mL; Percent Survival at Day-22 [11, 20]: 66%; Percent Survival at Day-22 ([11]; 35 mg/Kg oral gavage TID Days 2-6): 100%; Toxin A level at Day-22 [11, 22]: 0.8/0.8** ng/mL; Toxin B level at Day-22 [11, 22]: 0.8/0.8** ng/mL; Mean LOG10 CFU/mL of feces homogenates (cecal spore counts) at Day-22 ([11]; 35 mg/Kg oral gavage TID, limit of detection 2.40): 2.40* LOG10 CFU/mL; Mean LOG10 CFU/mL of feces homogenates (cecal spore counts) at Day-22 ([11]; 60 mg/Kg oral gavage TID): 2.51 LOG10 CFU/mL; Toxin A level at Day-22 ([11]; 60 mg/Kg oral gavage TID): 7.3 ng/mL; Toxin B level at Day-22 ([11]; 60 mg/Kg oral gavage TID): 5.5 ng/mL; Percent Survival at Day-22 [11, 21]: 83%; Efficacy compared with Vancomycin-treated animals at the same dose ([11]; end of the study at Day 21, ascending dose regimen, in words): superior efficacy; MIC C. scindens [12]: 4 µg/mL (≈ 1.84 µM)
CC(=O)NC[C@H]1CN(c2ccc(N3CCOCC3)c(F)c2)C(=O)O1 [Linezoid, Linezolid] |  |  |  |  |  |  |  |  |  |  |  |  |  |  |  |  |  |  |  |  | MIC ([13]; read-out: MIC VRE ATCC 51299): 2 µg/mL (≈ 5.93 µM); MIC ([13]; read-out: MIC VRE ATCC 51575): 2 µg/mL (≈ 5.93 µM); MIC ([13]; read-out: MIC VRE CCUG 47775): 2 µg/mL (≈ 5.93 µM); MIC VRE ATCC 51575 ([3]; strain ATCC 51575, multi-site variants): 2 µg/mL (≈ 5.93 µM); MIC ([14]; multi-site variants): 4 µg/mL (≈ 11.9 µM); MIC ([14]; single site variants): 2 µg/mL (≈ 5.93 µM); MIC [15]: 1 µg/mL (≈ 2.96 µM)
CC1COc2c(N3CCN(C)CC3)c(F)cc3c(=O)c(C(=O)O)cn1c23 (centres unmarked) [Ofloxacin] |  |  |  |  |  |  |  |  |  |  |  |  |  |  |  |  |  |  |  |  | MIC [16]: 1 µg/mL (≈ 2.77 µM)
Gentamicin |  |  |  |  |  |  |  |  |  |  |  |  |  |  |  |  |  |  |  |  | MIC S. aureus ATCC 19636 ([17]; strain ATCC 19636): 0.125 µg/mL; MIC S. aureus ATCC 29213 ([17]; strain ATCC 29213): 0.25 µg/mL; MIC SS. aureus ATCC 33591 ([17]; strain ATCC 33591): 1 µg/mL; MIC S. aureus BAA-1717 ([17]; strain BAA-1717): 0.25 µg/mL
